Values after ≈ are worked out from the molar mass of the structure shown. Read-outs that look alike come from different tables or passages of the source. Bridge positions count the residues as written; N and C are the ends. Square brackets hold non-standard residues; d marks the D form. Peptide text beside a SMILES is read from it. * marks the point of attachment. Fluorescein(5-Mal) = O=C1OC2(c3ccc(O)cc3Oc3cc(O)ccc32)c2ccc(N3C(=O)CC(*)C3=O)cc21; Ileψ(thiazoline)Cys = CC[C@H](C)[C@H](N)C1=N[C@H](C(=O)*)CS1; Succinimide(1-Et,3-yl) = CCN1C(=O)CC(*)C1=O; dOrn = NCCC[C@@H](N)C(=O)O
Assays:
type I pili = type I pili (Escherichia coli, UniProt P08191)
S. aureus = experiment: MIC testing against S. aureus; assay type: cell-based, Staph. aureus; settings: for activity against S. aureus (in words): controls at concentrations used in the derivatization
Protocol: 1.5 ml fractions were collected. The fractions in the void volume were pooled and sterile filtered. The activity of the conjugate was determined by standard MIC testing against S. aureus.

[1] = test system: Staphylococcus epidermidis; experiment: MIC and MBC; assay type: cell-based
[2] = test system: J5 bacteria phagocytosed by J774A.1 mouse macrophage cell line; assay type: cell-based
E. coli H16 [3] = test system: E. coli H16
Salmonella 34576 = settings: Table 43
E. coli H16 [4] = assay type: cell-based; settings: for BDA: Table 42
E. coli = experiment: MIC assays, summary of modified PMB's; settings: relative to PMB
Protocol: The MIC assays were performed as follows. Bacteria were grown overnight on TSB (Trypticase Soy Broth) plates at 37 degrees, and bacteria resuspended in sterile PBS to equal a #1 McFarland suspension. The suspension is diluted in TSB to a concentration of 5×10^5 organisms/ml. This diluted sample is the innoculum. Serial 2 fold dilutions of the conjugate to be tested are made in TSB (0.5 ml final volume of each dilution) in polystyrene tubes. 0.5 ml bacterial innoculum was added to each dilution tube. The conjugate concentrations are thus 2× the final concentration to be tested. Control tubes containing TSB alone, antimicrobial agent alone, and innoculum alone are also set. The tubes are vortexed and grown overnight in 37 degree incubator. […] Where two numbers are shown, the second number is the MIC of free PMB determined in the same experiment.

[5] = concentration expressed as absorbance at 280 nm
[6] = Table 40, first number of the cell

type I pili, sequence (P08191 22-300): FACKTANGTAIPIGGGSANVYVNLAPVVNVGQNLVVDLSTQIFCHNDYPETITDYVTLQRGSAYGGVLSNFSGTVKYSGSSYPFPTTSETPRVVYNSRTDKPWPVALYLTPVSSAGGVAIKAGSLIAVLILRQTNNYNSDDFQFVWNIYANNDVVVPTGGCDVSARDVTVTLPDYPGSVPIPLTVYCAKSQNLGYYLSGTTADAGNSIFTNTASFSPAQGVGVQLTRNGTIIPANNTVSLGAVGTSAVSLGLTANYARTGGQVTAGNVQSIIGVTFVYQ
type I pili, sequence (P08190 24-167 partner): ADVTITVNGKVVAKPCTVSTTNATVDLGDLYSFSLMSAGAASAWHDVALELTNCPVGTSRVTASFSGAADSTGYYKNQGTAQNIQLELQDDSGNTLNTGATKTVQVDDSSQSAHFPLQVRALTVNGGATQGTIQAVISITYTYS
type I pili, sequence (P08189 23-176 partner limits assumed): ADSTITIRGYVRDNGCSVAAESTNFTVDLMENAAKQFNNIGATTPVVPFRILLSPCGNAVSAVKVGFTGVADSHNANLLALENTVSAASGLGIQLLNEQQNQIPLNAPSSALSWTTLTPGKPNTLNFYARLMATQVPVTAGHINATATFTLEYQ
type I pili, sequence (P04128 24-182 partner): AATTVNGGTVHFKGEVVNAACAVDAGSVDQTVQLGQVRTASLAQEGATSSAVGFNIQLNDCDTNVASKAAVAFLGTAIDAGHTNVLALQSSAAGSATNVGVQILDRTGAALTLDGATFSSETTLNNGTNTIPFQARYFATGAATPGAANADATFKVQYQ

For `N[C@@H](Cc1ccccc1)C(=O)Nc1ccc(O[C@H]2O[C@H](CO)[C@@H](O)[C@H](O)[C@@H]2O)cc1` [4-(N-phenylalanyl)-aminophenyl-α-D-mannopyranoside], the “activity relative to methyl α-mannopyranoside” value (type I pili) was “approximately 1000 fold”.

For `CC(=O)OCC1=C(C(=O)O)N2C(=O)[C@@H](N)[C@H]2SC1` [7-aminocephalosporanic acid], the MIC (S. aureus; [5]) was 3.7 A280.

`CC[C@H](C)[C@H](N)C1=N[C@H](C(=O)N[C@@H](CC(C)C)C(=O)N[C@H](CCC(=O)O)C(=O)N[C@H](C(=O)N[C@H]2CCCCNC(=O)[C@H](CC(N)=O)NC(=O)[C@@H](CC(=O)O)NC(=O)[C@H](Cc3cnc[nH]3)NC(=O)[C@@H](Cc3ccccc3)NC(=O)[C@H]([C@@H](C)CC)NC(=O)[C@@H](CCCN)NC2=O)[C@@H](C)CC)CS1` [Bacitracin] ({Ileψ(thiazoline)Cys}-L[dE]IK[dOrn]I[dF]H[dD]N; lactam 4-C) was tested, and the MIC ([1]; Table 25) was 25 µg/mL (≈ 17.6 µM) and the MBC ([1]; Table 25, read-out: MBC) was 50 µg/mL (≈ 35.1 µM).

`CC(C)C[C@H](NC(=O)[C@H](C)N)C(=O)N[C@@H](Cc1ccc(O)cc1)C(=O)N[C@@H](CCCCN)C(=O)N[C@@H](CCCCN)C(=O)N[C@@H](CC(C)C)C(=O)N[C@@H](CC(C)C)C(=O)N[C@@H](CCCCN)C(=O)N[C@@H](CCCCN)C(=O)N[C@@H](CC(C)C)C(=O)N[C@@H](CC(C)C)C(=O)N[C@@H](CCCCN)C(=O)N[C@@H](CO)C(=O)N[C@@H](C)C(=O)N[C@@H](CCCCN)C(=O)N[C@@H](CCCCN)C(=O)N[C@@H](CC(C)C)C(=O)NCC(=O)N[C@@H](CSC1CC(=O)N(c2ccc3c(c2)C(=O)OC32c3ccc(O)cc3Oc3cc(O)ccc32)C1=O)C(N)=O` (stereo partly drawn) [C19G-Mal-FL] (H-ALYKKLLKKLLKSAKKLGC(Fluorescein(5-Mal))-NH2; N-terminus assumed) was tested, and the “% Macrophage with phagocytosed bacteria” value ([2]; Table 61 (repeat assay), 1×10^8 J5 bacteria opsonized, from 100 macrophage examined, conjugates 0.5 ug/ml, anti-avidin 1/400, anti-fluorescein antibody 14 ug/ml) was 8%, the “enhancement of phagocytosis (in words)” value ([2]; with anti-fluorescein antibody) was “prevents the C19g-Mal-FL conjugate from enhancing bacterial phagocytosis” and the MIC (E. coli H16 [3]) was 10 µg/mL (≈ 3.89 µM).

For `CCN1C(=O)CC(SC[C@H](NC(=O)CNC(=O)[C@H](CC(C)C)NC(=O)[C@H](CCCCN)NC(=O)[C@H](CCCCN)NC(=O)[C@H](C)NC(=O)[C@H](CO)NC(=O)[C@H](CCCCN)NC(=O)[C@H](CC(C)C)NC(=O)[C@H](CC(C)C)NC(=O)[C@H](CCCCN)NC(=O)[C@H](CCCCN)NC(=O)[C@H](CC(C)C)NC(=O)[C@H](CC(C)C)NC(=O)[C@H](CCCCN)NC(=O)[C@H](CCCCN)NC(=O)[C@H](Cc2ccc(O)cc2)NC(=O)[C@H](CC(C)C)NC(=O)[C@H](C)N)C(N)=O)C1=O` (stereo partly drawn) [C19G-NEM] (H-ALYKKLLKKLLKSAKKLGC(Succinimide(1-Et,3-yl))-NH2; N-terminus assumed), the MIC (E. coli 0111:B4; 0111:B4) was 6 µg/mL (≈ 2.64 µM), the MIC (Salmonella 34576) was 6 µg/mL (≈ 2.64 µM) and the MIC (E. coli H16 [3]) was 10 µg/mL (≈ 4.4 µM). It also gave a BDA (E. coli H16 [4]) of 2.5 to 5 µg/mL.

In the case of `CC(C)C[C@H](NC(=O)[C@H](Cc1ccccc1)NC(=O)[C@H](CCCNC(=N)N)NC(=O)[C@H](CCCCN)NC(=O)[C@H](CCC(N)=O)NC(=O)[C@H](C)NC(=O)[C@H](CCCCN)NC(=O)[C@H](Cc1c[nH]c2ccccc12)NC(=O)[C@H](CCCCN)NC(=O)[C@@H](N)CS)C(=O)N[C@@H](CCCCN)C(=O)O` [C90-99, cys-lys-trp-lys-ala-gln-lys-arg-phe-leu-lys, reference compound], the MIC (E. coli HB101; HB101) is reported as >75 µg/mL and the MIC (E. coli 0111:B4; 0111:B4) is reported as >75 µg/mL.

For `O=C(Nc1ccc(O[C@H]2O[C@H](CO)[C@@H](O)[C@H](O)[C@@H]2O)cc1)c1ccccc1` [N-benzoyl derivative, 4-Benzamidophenyl-α-D-mannopyranoside], the “activity relative to methyl α-mannopyranoside” value (type I pili) was 1000 fold.

For `O=C(ON1C(=O)CC(S(=O)(=O)O)C1=O)c1cccc(N2C(=O)C=CC2=O)c1` (stereo not drawn) [Sulfo-MBS, m-Maleimidobenzoyl-N-hydroxysulfosuccinimide ester], the “activity against S. aureus (in words)” value (S. aureus) was “inactive”.

With `OCCS` [beta-mercaptoethanol] the “activity against S. aureus (in words)” value (S. aureus) was “inactive”.

For `NCCO` [ethanolamine], the “activity against S. aureus (in words)” value (S. aureus) was “inactive”.

`CC1(C)S[C@@H]2[C@H](N)C(=O)N2[C@H]1C(=O)O` [native aminopenicillanic acid, 6-aminopenicillanic acid] was tested, and the MIC (S. aureus; Staphylococcus aureus, read-out: MIC) was 250 µg/mL (≈ 1160 µM).

Molecule `CC1(C)S[C@@H]2[C@H](NC(=O)[C@H](N)c3ccc(O)cc3)C(=O)N2[C@H]1C(=O)O` [native amoxicillin, amoxicillin] has an MIC (S. aureus) of 250 µg/mL (≈ 684 µM).

`CC1=C(C(=O)O)N2C(=O)[C@@H](NC(=O)[C@H](N)c3ccc(O)cc3)[C@H]2SC1` [native cefadroxil, cefadroxil] was tested, and the MIC (S. aureus; [5]) was 0.028 A280.

Cysteinyl-PMB [PMB-Cys] was tested, and the MIC (E. coli 0111:B4; [6]) was 0.7 µg/mL, the MIC (E. coli 0111:B4; Table 41) was 0.8 to 1 µg/mL and the “antibiotic activity (in words)” value (E. coli) was “Active”.

With Imminothiolated PMB [PMB-Traut's] the “loss of anti-bacterial activity relative to PMB” value (E. coli HB101) was 40-80 fold and the MIC (E. coli HB101; Table 41) was 4 µg/mL.

Molecule “Lysyl S-Succinamidyl (Fluorescein) PMB [PMB-Lys-FL]” has an MIC (E. coli 0111:B4; [6]) of 1 µg/mL.

For Lysyl-PMB [PMB-Lys], the MIC (E. coli 0111:B4; [6]) was 2.0 µg/mL, the MIC (E. coli 0111:B4; Table 41) was 2 µg/mL and the “antibiotic activity (in words)” value (E. coli) was “Active”.

Monoalanyl PMB [PMB-Ala] was tested, and the MIC (E. coli 0111:B4; [6]) was 0.7 µg/mL, the MIC (E. coli 0111:B4; Table 41) was 0.8 to 2 µg/mL and the “antibiotic activity (in words)” value (E. coli) was “Active”.

For PMB-NHCOCH2SCOCH3 [PMB-SATA], the “loss of anti-bacterial activity relative to PMB” value (E. coli HB101) was “about 10 fold”, the MIC (E. coli HB101; Table 41) was 0.6 µg/mL and the “antibiotic activity (in words)” value (E. coli) was “Less Active”.

For “PMB-S-Mercaptosuccinyl-succinimidyl-fluorescein [PMB-SAMSA-Mal-FL]”, the MIC (E. coli 0111:B4; [6]) was 10 µg/mL and the MIC (E. coli 0111:B4; Table 44) was 4 to 20 µg/mL.

In the case of Polymyxin B-fluoroscein [PMB-NHS-FL], the “loss of anti-bacterial activity relative to PMB” value (E. coli HB101) is reported as 10-20 fold and the MIC (E. coli HB101; Table 44) is reported as 0.8 to 1 µg/mL.

“S-(Acetomidomethyl)-t-butoxycarbonylcysteinyl PMB [PMB-Boc-Cys (ACM)]” showed an MIC (E. coli 0111:B4; [6]) of 6.0 µg/mL and an MIC (E. coli 0111:B4; Table 41) of 5 µg/mL.

“S-(Acetomidomethyl)cysteinyl PMB [PMB-Cys (ACM)]” gave an MIC (E. coli 0111:B4; [6]) of 1.2 µg/mL and an MIC (E. coli 0111:B4; Table 41) of 5 µg/mL.

For “S-Acetylmercaptosuccinyl PMB [PMB-SAMSA]”, the “loss of anti-bacterial activity relative to PMB” value (E. coli HB101) was 10-30 fold, the MIC (E. coli HB101; Table 41) was 0.5 to 3 µg/mL and the MIC (E. coli 0111:B4; [6]) was 3.1 µg/mL. For the same molecule, the MIC (E. coli 0111:B4; Table 41) was 3 µg/mL.

“S-hydroxyethylthio maleimidomethyl cyclohexane carboxyl-N-cefadroxil ester” was tested, and the MIC (S. aureus; [5]) was 1.6 A280.

“S-hydroxyethylthio-maleimidobenzoyl-N-aminocephalosporanic acid ester” gave an MIC (S. aureus; [5]) of 0.86 A280.

With “ala-leu-tyr-lys-lys-leu-leu-lys-lys-leu-leu-lys-ser-ala-lys-lys-leu-gly-cys-amide [C19G]” the “lower activity than C18G” value (E. coli H16 [4]) was “about 5 fold” and the BDA (E. coli H16 [4]) was 25 to 50 µg/mL.

Molecule “t-butoxycarbonyl-alanine-polymyxin B [PMB-BOC-Ala]” has an MIC (E. coli 0111:B4; Table 41) of 2 µg/mL.

“α,ε-di-t-Butoxycarbonyl-lysyl-PMB [α,ε-di-t-butoxycarbonyl lysyl derivative]” was tested, and the “antibiotic activity (in words)” value (E. coli) was “significantly less active”.

“α-Boc-ε{flourescein) thiocarbamoyl}-lysyl PMB [PMB-Boc-Lys-FL]” was tested, and the MIC (E. coli 0111:B4; [6]) was 12.5 µg/mL.

— patent publication US6579696B1, “Polymyxin B conjugates” (priority 1992, dated 2003)
